Reference: PMC7288171, “Synergistic Effects of Thiosemicarbazides with Clinical Drugs against S. aureus” (Molecules, 2020)
≈ marks a conversion by molar mass, not a printed value.

What was measured:
[1] = system: human foreskin fibroblast Hs27 cells (CRL-1634); experiment: MTT cytotoxicity assay; format: cell-based; conditions: Homo sapiens, 24 h of treatment
Experimental: (§1) A critical factor in research and development of new antibacterial agents is their abilities to selectively target bacterial cells without toxicity to mammalian cells. Thus, in order to test if antibacterial activity of title thiosemicarbazides is not due to their general toxicity, their effect on mammalian cell viability was assessed using human foreskin fibroblast Hs27 cells (CRL-1634) via MTT assay.
(§2) Cytotoxic properties of the compounds were evaluated using human foreskin fibroblast cells Hs27 (ATCC CRL-1634) (ATCC, Manassas, VA, USA) that were cultured in DMEM-high glucose (Sigma Aldrich, St. Louis, MO, USA). Medium was supplemented with 10% fetal bovine serum (FBS, Sigma Aldrich), 100 U/mL of penicillin, and […] of streptomycin (PenStrep, Sigma Aldrich, St. Louis, MO, USA). Cells were incubated at 37 °C in a humidified atmosphere of 5% CO2. Stock solutions of the tested compounds were prepared dissolving in a sterile dimethyl sulfoxide (DMSO) to the concentration of 50 mg/mL. The cells were seeded into 96-well sterile plates (Nunc) at a cell density of 1 × 10^5 cells/mL. After 24 h of incubation, the medium was removed from each well, and then cells were incubated for the next 24 h with tested compounds (in a fixed dose of 25 µg/mL) in DMEM-high glucose containing 2% FBS. Control cells were cultured only with medium containing 2% addition of FBS. Cytotoxicity of the compounds was evaluated using MTT assay, which is based on the conversion of 3-(4,5-dimethylthiazol-2-yl)-2,5- diphenyltetrazolium bromide (MTT) into dark-blue formazan crystals. Briefly, after 24-h incubation of cells with varying concentrations of the tested compounds, culture medium was removed from the plates. Cells were washed with PBS, and then 100 µL of medium containing 10% MTT solution (5 mg/mL) was added to each well. Cells were incubated for the next 3 h at 37 °C in an atmosphere of 5% CO2. Next, 100 µL (per well) of 10% sodium dodecyl sulfate (SDS) buffer solution was added to dissolve formazan crystals and after an overnight incubation the absorbance was measured at 570 nm using a microplate reader (Epoch, BioTek Instruments, Inc., Winooski, VT, USA).

MTT cytotoxicity assay = format: cell-based, human; conditions: human, Hs27 foreskin fibroblast cells (ATCC CRL-1634), 25 µg/mL, 24 h, vehicle control = 100%
Experimental: as §1, §2

S. aureus ATCC 25923 [2] = experiment: Checkerboard broth dilution synergy assay; format: cell-based
Experimental: The microdilution checkerboard method was used to evaluate the synergistic effects between the thiosemicarbazides 1–9 and antibiotics, which were determined as the fractional inhibitory concentration indices (FICIs). For these experiments, amoxicillin, gentamicin, levofloxacin, linezolid, and vancomycin were selected to represent the five antimicrobial classes most commonly used in clinical practice. In this way, a total of 45 combinations of thiosemicarbazide-amoxicillin, thiosemicarbazide-gentamicin, thiosemicarbazide-levofloxacin, thiosemicarbazide-linezolid, and thiosemicarbazide-vancomycin against S. aureus ATCC 25923 were tested to identify in vitro synergy effects.
Interaction of the thiosemicarbazides 1–9 in combination with amoxicillin, gentamicin, levofloxacin, linezolid or vancomycin against S. aureus ATCC 25923 were analyzed using the checkerboard broth dilution method to determine the fractional inhibitory concentration indices (FICIs), calculated as: FIC = MIC of drug A in combination/MIC of drug A alone + MIC of drug B in combination/MIC of drug B alone. The calculated FICIs were interpreted as synergistic (FIC ≤ 0.5), additive (0.5 < FIC < 1), indifferent (1 ≤ FIC < 4.0), or antagonistic (FIC ≥ 4.0). The checkerboard assay included ciprofloxacin-carvedilol combination as positive control, whereas cefuroxime in combination with 4-(4-bromophenyl)-1-(3-fluorobezoyl)thiosemicarbazide served as negative control. The Z-factor value for the bioassay was 0.683.

S. aureus ATCC 25923 [3] = system: S. aureus ATCC 25923; set-up: method as in PMID 25897586; conditions: S. a. ATCC 25923; compounds 1–5; cited from earlier work
[4] = system: S. epidermidis ATCC 12228; set-up: method as in PMID 25897586; conditions: S. e. ATCC 12228; compounds 1–5; cited from earlier work
MSSA-3 = experiment: MIC, clinical isolate of S. aureus; format: cell-based; conditions: Staphylococcus aureus; clinical isolate MSSA-3; read-out: MIC
Experimental: (§3) The antibacterial activity of the thiosemicarbazides 1–9 and antibiotics (amoxicillin, gentamicin, levofloxacin, linezolid, and vancomycin) was tested on the Gram-positive strains (Microbiologics, St. Cloud, MN, USA) (S. aureus ATCC 25923, S. aureus ATCC 6538, S. epidermidis ATCC 12228, B. subtilis ATCC 6633, B. cereus ATCC 10876, M. luteus ATCC 10240), the Gram-negative strains (Microbiologics, St. Cloud, MN, USA) (E. coli ATCC 25922, K. pneumoniae ATCC 13883, P. mirabilis ATCC 12453, P. aeruginosa ATCC 9027), and clinical isolates of S. aureus (Medical University of Lublin, Lublin, Poland) (MSSA-1, MSSA-2, MSSA-3, MSSA-4, MRSA-1).

MSSA-2 = experiment: MIC, clinical isolate of S. aureus; format: cell-based; conditions: Staphylococcus aureus; clinical isolate MSSA-2; read-out: MIC
Experimental: as §3

MRSA-1 = experiment: MIC, clinical isolate of S. aureus; format: cell-based; conditions: Staphylococcus aureus; clinical isolate MRSA-1; read-out: MIC
Experimental: as §3

MSSA-1 = experiment: MIC, clinical isolate of S. aureus; format: cell-based; conditions: Staphylococcus aureus; clinical isolate MSSA-1; read-out: MIC
Experimental: as §3

MSSA-4 = experiment: MIC, clinical isolate of S. aureus; format: cell-based; conditions: Staphylococcus aureus; clinical isolate MSSA-4; read-out: MIC
Experimental: as §3

[5] = target: T1, S. aureus topoisomerase IV (Staphylococcus aureus, UniProt P0C1S7+P0C1U9); experiment: Topoisomerase IV decatenation assay; format: biochemical; conditions: in words; 50 and 100 µM tested (Figures S1–S3)
T1 construct: purchased Inspiralis, Norwich, UK
Experimental: Inhibition of decatenation activity of S. aureus topoisomerase IV: The assay was performed using S. aureus topoisomerase IV decatenation kits (Inspiralis, Norwich, UK). Interlinked kDNA substrate (0.5 µg) was incubated with 1 unit of topoisomerase IV (Inspiralis, Norwich, UK), in the dedicated decatenation assay buffer supplied by the manufacturer, in the presence of varying concentrations of the test compounds. Reactions were carried out at 37 °C for 1 h and then terminated by the addition of equal volume of 2 × STOP Buffer and chloroform/iso-amyl alcohol. Samples were vortexed, centrifuged, and run through a 15 cm 1% agarose gel in TAE buffer for 1.5 h at 80 V. Gels were stained with ethidium bromide and visualized under UV light.

M. luteus ATCC 10240 = system: M. luteus ATCC 10240; set-up: method as in PMID 25897586; conditions: M. l. ATCC 10240; compounds 1–5; cited from earlier work
S. aureus ATCC 6538 = system: S. aureus ATCC 6538; set-up: method as in PMID 25897586; conditions: S. a. ATCC 6538; compounds 1–5; cited from earlier work
B. subtilis ATCC 6633 = system: B. subtilis ATCC 6633; set-up: method as in PMID 25897586; conditions: B. s. ATCC 6633; compounds 1–5; cited from earlier work
B. cereus ATCC 10876 = system: B. cereus ATCC 10876; set-up: method as in PMID 25897586; conditions: B. c. ATCC 10876; compounds 1–5; cited from earlier work

T1 sequence (P0C1U9 whole entry): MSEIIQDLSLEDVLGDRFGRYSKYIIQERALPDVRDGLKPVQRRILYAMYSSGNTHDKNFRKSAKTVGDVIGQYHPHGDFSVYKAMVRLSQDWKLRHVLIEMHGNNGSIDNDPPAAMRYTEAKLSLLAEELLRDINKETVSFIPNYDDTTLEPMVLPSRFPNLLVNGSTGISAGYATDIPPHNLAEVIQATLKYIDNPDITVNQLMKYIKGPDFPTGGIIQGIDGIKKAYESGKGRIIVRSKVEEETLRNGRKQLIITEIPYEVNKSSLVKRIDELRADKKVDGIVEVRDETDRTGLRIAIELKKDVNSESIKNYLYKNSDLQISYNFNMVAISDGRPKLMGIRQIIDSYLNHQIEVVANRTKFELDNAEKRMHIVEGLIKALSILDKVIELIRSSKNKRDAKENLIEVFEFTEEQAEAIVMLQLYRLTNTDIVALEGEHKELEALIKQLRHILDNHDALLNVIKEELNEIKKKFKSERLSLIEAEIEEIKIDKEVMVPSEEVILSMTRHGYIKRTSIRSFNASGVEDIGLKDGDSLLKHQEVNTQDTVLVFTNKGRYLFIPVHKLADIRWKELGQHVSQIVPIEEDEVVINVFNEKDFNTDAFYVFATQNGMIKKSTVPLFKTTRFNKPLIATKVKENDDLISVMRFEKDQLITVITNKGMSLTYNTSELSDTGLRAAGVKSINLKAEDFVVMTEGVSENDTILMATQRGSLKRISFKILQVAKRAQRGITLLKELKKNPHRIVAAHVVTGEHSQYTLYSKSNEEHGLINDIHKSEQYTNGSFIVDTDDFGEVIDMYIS
T1 sequence (P0C1S7 whole entry): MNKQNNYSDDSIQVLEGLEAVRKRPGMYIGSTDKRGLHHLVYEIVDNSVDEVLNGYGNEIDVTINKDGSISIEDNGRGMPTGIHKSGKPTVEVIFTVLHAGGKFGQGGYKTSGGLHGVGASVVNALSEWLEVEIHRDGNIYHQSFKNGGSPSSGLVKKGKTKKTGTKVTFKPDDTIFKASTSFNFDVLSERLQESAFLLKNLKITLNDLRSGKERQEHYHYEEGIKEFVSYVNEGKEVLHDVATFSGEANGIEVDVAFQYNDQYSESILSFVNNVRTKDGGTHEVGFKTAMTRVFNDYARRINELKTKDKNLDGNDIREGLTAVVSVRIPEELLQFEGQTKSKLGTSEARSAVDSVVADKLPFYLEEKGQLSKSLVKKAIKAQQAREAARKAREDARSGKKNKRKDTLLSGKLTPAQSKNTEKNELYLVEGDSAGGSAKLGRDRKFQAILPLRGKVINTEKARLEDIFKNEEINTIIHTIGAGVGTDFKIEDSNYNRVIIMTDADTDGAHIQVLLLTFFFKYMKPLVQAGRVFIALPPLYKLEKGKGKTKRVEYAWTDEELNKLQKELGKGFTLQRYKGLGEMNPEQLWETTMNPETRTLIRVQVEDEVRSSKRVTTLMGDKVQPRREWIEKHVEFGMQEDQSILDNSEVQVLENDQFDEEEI

Row | SMILES | IC50 [1] [µg/mL] | viability at 24 h, 25 µg/mL (MTT cytotoxicity assay) [%] | interaction in combination (S. aureus ATCC 25923 [2]; combination with amoxicillin) | interaction in combination (S. aureus ATCC 25923 [2]; combination with gentamicin) | interaction in combination (S. aureus ATCC 25923 [2]; combination with levofloxacin) | interaction in combination (S. aureus ATCC 25923 [2]; combination with linezolid) | interaction in combination (S. aureus ATCC 25923 [2]; combination with vancomycin) | MIC (S. aureus ATCC 25923 [3]) [µg/mL] | MIC [4] [µg/mL] | MIC (MSSA-3) [µg/mL] | MIC (MSSA-2) [µg/mL] | MIC (MRSA-1) [µg/mL] | MIC (MSSA-1) [µg/mL] | MIC (MSSA-4) [µg/mL] | inhibitory action against topoisomerase IV [5] | MIC (M. luteus ATCC 10240) [µg/mL] | MIC (S. aureus ATCC 6538) [µg/mL] | MIC (B. subtilis ATCC 6633) [µg/mL] | MIC (B. cereus ATCC 10876) [µg/mL]
1 | Cc1ccccc1C(=O)NC(=S)NNC(=O)c1cccc(Cl)c1Cl [compound 1] | > 25 | 78.5 | additive | no interactions | no interactions | additive | no interactions | 15.63 (≈ 40.9 µM) | 7.81 (≈ 20.4 µM) | > 500 | > 500 | 125 (≈ 327 µM) | > 500 | > 500 | no inhibitory effects | 1.95 (≈ 5.1 µM) | 15.63 (≈ 40.9 µM) | 3.91 (≈ 10.2 µM) | 3.91 (≈ 10.2 µM)
2 | O=C(NC(=S)NNC(=O)c1cccc(Cl)c1Cl)c1ccccc1Cl [compound 3] | > 25 | 81 | additively | additively | additively | additively | no interaction | 15.63 (≈ 38.8 µM) | 7.81 (≈ 19.4 µM) | > 500 | > 500 | 125 (≈ 310 µM) | > 500 | 250 (≈ 621 µM) | no inhibitory effects | 0.98 (≈ 2.43 µM) | 15.63 (≈ 38.8 µM) | 3.91 (≈ 9.71 µM) | 3.91 (≈ 9.71 µM)
3 | O=C(NC(=S)NNC(=O)c1cccc(Cl)c1Cl)c1ccc(Cl)cc1 [compound 4] | > 25 | 80.7 | additive | – | synergistic | additive | did not display any synergism nor additivity | 31.25 (≈ 77.6 µM) | 7.81 (≈ 19.4 µM) | > 500 | > 500 | > 500 | > 500 | 500 (≈ 1240 µM) | – | 1.95 (≈ 4.84 µM) | 15.63 (≈ 38.8 µM) | 0.98 (≈ 2.43 µM) | 3.91 (≈ 9.71 µM)
4 | O=C(NC(=S)NNC(=O)c1cccc(Cl)c1Cl)c1ccc([N+](=O)[O-])cc1 [compound 5] | > 25 | 70.9 | no interactions | no interactions | no interactions | synergistically | no interactions | 1.95 (≈ 4.72 µM) | 1.95 (≈ 4.72 µM) | > 500 | > 500 | 250 (≈ 605 µM) | > 500 | 500 (≈ 1210 µM) | – | 0.49 (≈ 1.19 µM) | 1.95 (≈ 4.72 µM) | 0.98 (≈ 2.37 µM) | 0.98 (≈ 2.37 µM)
